Patent US8771641B2, “Aryloxyanilide imaging agents” (priority 2009, dated 2014)

Legend:
[1] = cited from earlier work
PBR [2] = target: PBR (Homo sapiens, UniProt P30536); settings: in vivo; cited from earlier work
[3] = Metabolism assay: intact test compound in rat brain by HPLC; assay type: in vivo, Wistar rats; settings: 60 minutes post-injection; for proportion intact in the brain (in words): compared with PBR06
Description: Example 12 describes the assay used to evaluate the amount of intact test in vivo imaging agent in rat brain at 60 minutes post-injection.
Brain tissue samples were collected from adult male Wistar rats (200-300 g) at 60 minutes after injection of test in vivo imaging agent. These samples were then processed via solvent extraction (see below) to extract the ^18F-labelled parent along with any ^18F-labelled metabolites, before introduction to the HPLC.
Brain (minus cerebellum +medulla pons) was homogenized with 10 mls of ice-cold Acetonitrile (5000 rpm for 5 mins) to extract all the ^18F-labelled species. The resulting supernatant was then evaporated to dryness (rotary evaporation at 40° C.), concentrated in 2.5 mls of mobile phase, filtered and 1 ml was injected onto the HPLC.
The HPLC set up for ^18F analysis was connected to a dual BGO radio & UV detector. A μBondapak C18 prep column was used having dimensions 7.8×300 mm; 10 μm; 125 Å. An isocratic elution system was used using between 30-40% water and between 60-70% acetonitrile. The flow rate was 3 ml/min. The aqueous to organic phase ratio was varied for each test in vivo imaging agent to obtain a parent peak at retention time at or around 10 min±2 min.

[4] = Briard et al J Med Chem 2009; cited from earlier work
PBR [5] = target: T1, PBR (Rattus norvegicus, UniProt P16257); experiment: In vivo biodistribution model: OB:striatum uptake; design: species or system Wistar rats; settings: injection via lateral tail vein, 2, 10, 30 or 60 min, in words, compared with PBR06
T1 construct: OB is known to express higher levels of PBR compared with other areas of rat brain; from tissue; host or cells: living Wistar rats; olfactory bulb and striatum sampled
T1 sequence (P16257 whole entry): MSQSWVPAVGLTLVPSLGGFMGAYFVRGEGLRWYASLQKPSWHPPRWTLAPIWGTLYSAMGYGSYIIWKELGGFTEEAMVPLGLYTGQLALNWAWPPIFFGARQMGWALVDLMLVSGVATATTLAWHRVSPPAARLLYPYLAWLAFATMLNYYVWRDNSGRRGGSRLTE
Description: Example 11 describes the rat biodistribution model that was used to compare in vivo imaging agents of the invention with PBR06. […] As OB is known to express higher levels of PBR compared with other areas of rat brain (see “Handbook of Substance Abuse” by Tarter, Ammerman and Ott; Springer 1998: 398-99) the ratio OB:striatum is a measure of specificity of test compound uptake.
PBR06 (synthesised according to Briard et al J Med Chem 2009; 52: 688-699) and in vivo imaging agents 1-3 were tested in an in vivo biodistribution model and their respective biodistributions compared.
Adult male Wistar rats (200-300 g) were injected with 1-3 MBq of test compound via the lateral tail vein. At 2, 10, 30 or 60 min (n=3) after injection, rats were euthanised and tissues or fluids were sampled for radioactive measurement on a gamma counter.

Wistar rat heart PBR = Wistar rat heart PBR (Rattus norvegicus, UniProt P16257); experiment: biochemical
Chain of Wistar rat heart PBR (P16257 whole entry): as above
Description: Affinity for PBR was screened using a method adapted from Le Fur et al (Life Sci. 1983; USA 33: 449-57).
Each test compound (dissolved in 50 mM Tris-HCl, pH 7.4, 10 mM MgCl2 containing 1% DMSO) competed for binding to Wistar rat heart PBR against 0.3 nM [^3H] […] The reaction was carried out in 50 mM Tris-HCl, pH 7.4 10 mM MgCl2 for 15 minutes at 25° C.

Chain of PBR (Homo sapiens, UniProt P30536) (P30536 whole entry, species assumed): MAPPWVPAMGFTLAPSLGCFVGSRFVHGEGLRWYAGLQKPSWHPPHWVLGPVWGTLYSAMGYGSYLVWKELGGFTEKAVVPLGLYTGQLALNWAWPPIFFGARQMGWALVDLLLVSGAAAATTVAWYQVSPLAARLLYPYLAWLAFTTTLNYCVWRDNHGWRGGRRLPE

| Compound | protein binding [1] | specific to non-specific binding (PBR [2]) | percentage of radioactivity in the brain representing intact test compound [3] [%] | metabolism in the periphery [4] | penetration of metabolites through the blood-brain barrier [4] | OB:striatum uptake (ratio of uptake in olfactory bulb compared to striatum) (PBR [5]) | Ki (Wistar rat heart PBR) [nM] | proportion intact in the brain (in words) [3] |
| --- | --- | --- | --- | --- | --- | --- | --- | --- |
| CC[C@@H](C)N([11CH3])C(=O)c1cc2ccccc2c(-c2ccccc2Cl)n1 [(R)-[^11C]PK11195] | high protein binding | low specific to non-specific binding |  |  |  |  |  |  |
| COc1ccc(OC)c(CN(C(=O)C[18F])c2ccccc2Oc2ccccc2)c1 [PBR06, reference compound] |  |  | 90 | metabolised quite rapidly in the periphery | do not penetrate the blood-brain barrier | less than optimal for in vivo imaging | 0.28 |  |
| O=C(C[18F])N(Cc1cccc2c1OCC2)c1ccccc1Oc1ccccc1 [in vivo imaging agent 1] |  |  | 93 |  |  | taken up relatively more in the OB as compared with the striatum | 0.31 | even higher proportion intact in the brain at 60 minutes post-injection as compared with PBR06 |
| O=C(C[18F])N(Cc1cccc2c1OCO2)c1ccccc1Oc1ccccc1 [in vivo imaging agent 2] |  |  | 92 |  |  | comparable with PBR06 | 2.03 | even higher proportion intact in the brain at 60 minutes post-injection as compared with PBR06 |
| O=C(C[18F])N(Cc1cccc2c1OCCO2)c1ccccc1Oc1ccccc1 [in vivo imaging agent 3] |  |  | 82 |  |  | comparable with PBR06 | 1.14 |  |
| CC1(C)Cc2cccc(CN(C(=O)C[18F])c3ccccc3Oc3ccccc3)c2O1 [in vivo imaging agent 4] |  |  |  |  |  |  | 2.66 |  |
